For one series, the system named is HL-60 cells. As to the kind of experiment: alamarBlue cell viability assay, HL-60. The class given is cell-based. As to conditions: Homo sapiens, HL-60, 72 h, alamarBlue, 72 h; read-out: HL-60 IC50 ± SEM. An excerpt: Cell viability and proliferation assays were used to evaluate the in vitro cytotoxicity of all synthesised compounds in a variety of different cancer cell lines using the alamarBlue® viability assay and the results are presented in Table 1 and Table 2. The sensitivity of cancer cells to drugs can often be compromised by PIK3CA, Ras and BRAF mutations. To determine whether such mutations are critical to the efficacy of our new compounds we tested them in a range of cancerous cell lines expressing different mutations. Firstly, we used the HL-60 (human promyelocytic leukaemia, NRas mutated) cell line for general cytotoxicity screening of all compounds. […] Lastly, toxicity against MCF-10A, which is a non-tumorigenic epithelial cell line, was also assessed for one of the most promising compounds (4). The graphs representing the viability results with the HL-60, MCF-7, HeLa, HCT-116, and HKH-2 cancer cell lines for compound 1 and derivatives 2, 3, and 4 are shown in Figures S7–S10 (ESI).
Cells were counted and seeded in 96-well plates at a density of 2 × 10^5 cells/mL for HL-60, 2.5 × 10^4 cells/mL for MCF-7, MCF10A and HeLa, 1 × 10^5 cells/mL for HCT116 and HKH-2, all of them in their respective media. The 96-well plates were then treated with a 1:100 dilution of stock concentrations of drugs or EtOH (1% v/v)/DMSO (0.1% v/v) as vehicle control in triplicate. Three blank wells containing 200 µL RPMI with no cells were also set-up as blanks. After a 72 h incubation, 20 µL of alamarBlue was added to each well. The plates were incubated in darkness at 37 °C for 4–5 h using a Molecular Devices microplate reader, the fluorescence (F) was then read at an excitation wavelength of 544 nm and an emission wavelength of 590 nm. Cell viability was then determined by subtracting the mean blank fluorescence (Fb) from the treated sample fluorescence (Fs) and expressing this as a percentage of the fluorescence of the blanked vehicle control (Fc). […] The results were then plotted as a nonlinear regression, sigmoidal dose-response curves on Prism, from which the IC50 value for each drug was determined. […]
Pharmacy, TCD. It was maintained in Roswell Park Memorial Institute (RPMI) 1640 medium with stable glutamate (GlutaMax I) supplemented with 10% (v/v) fetal bovine serum (FBS), 1% (v/v) penicillin/ streptomycin (pen-strep) and 2 mM L-glutamine. […]
4.4. AlamarBlue ® Cell Viability Assay
Cells were counted and seeded in 96 well plates at a density of 2 × 10^5 cells/mL for HL-60, 2.5× 10^4 cells/mL for MCF-7, MCF10A and HeLa, 1 × 10^5 cells/mL for HCT116 and HKH-2, all of them in their respective media. The 96 well plates were then treated with a 1:100 dilution of stock concentrations of drugs or EtOH (1% v/v)/DMSO (0.1% v/v) as vehicle control in triplicate.
Three blank wells containing 200 µL media with no cells were also set-up as blanks. After a 72 h incubation, 20 µL of AlamarBlue was added to each well. The plates were incubated in darkness at 37 °C for 4-5 h. Using a Molecular Devices microplate reader, the fluorescence (F) was then read at an excitation wavelength of 544 nm and an emission wavelength of 590 nm.
Cell viability was then determined by subtracting the mean blank fluorescence (Fb) from the treated sample fluorescence (Fs) and expressing this as a percentage of the fluorescence of the blanked vehicle control (Fc). […] The results were […]
then plotted as a nonlinear regression, sigmoidal dose-response curves on Prism, from which the IC50 value for each drug was determined.
Fs − Fb x 100 = % Cell Viability
60 cell line in a dose-dependent manner.
(1 picture or pasted object on this page, not shown here)
(The colour change of resazurin is a common sign of viable cells or microbes.)

Series [1] concerns ERK phosphorylation (MAPK/ERK pathway). As to the kind of experiment: Western immunoblot of ERK phosphorylation in HL-60 extracts. The class given is cell-based, human. As to conditions: HL-60, 5 µM, 16 h. Here is the method: Thus, using Western immunoblot analysis of HL-60 extracts, we investigated the expression and phosphorylation levels of ERK (as an indication of ERK activation), which is the downstream effector of the Ras/BRAF signalling pathway (Figure 6).
HL60s were seeded in T25 flasks at 50 × 10^4 cells/mL and cells were treated with either vehicle [0.5% EtOH (v/v)], 1–4, 9 or 52 (5 µM), as well as 1 (10 µM as reported). After 16 h, cells were collected and washed with PBS. Cell pellets were re-suspended in cold cell lysis buffer (radio-immunoprecipitation assay buffer) supplemented with 1% phosphatase inhibitor cocktail 2 and 3 (Sigma) and 10% protease inhibitor (Roche). Cells were lysed for 30 min on ice. Protein concentration was then determined by BCA assay. Lysates were boiled with Laemmli sample buffer [Tris-HCL 50 mM (pH 6.7), glycerol 10% (w/v), sodium dodecyl sulphate 2% (w/v), bromophenol blue 0.02% (w/v)] containing DTT […] for 10 min at 90 °C. Moreover, 20 µg of lysates were resolved by sodium dodecyl sulphate polyacrylamide gel electrophoresis (SDS-PAGE) and transferred onto PVDF transfer membrane (EMD Millipore). Membranes were blocked with 5% non-fat milk and probed with primary antibodies for ERK and phospho-ERK (Cell Signalling). Anti-GAPDH was used as a loading control (Calbiochem).
Figure 6 Western immunoblot of HL-60 cell extracts following incubation with compounds 2, 3, 4, 9, 52 and 1 (as a control). HL60 cells were seeded at 2 × 10^5 cells/mL and were treated with either vehicle [0.5% EtOH (v/v)], compounds 52, 2, 9, 3 and 4 (5 µM) or compound 1 (5 and (*) 10 µM, as in reference) for 16 h. Cells were lysed and equal amounts of protein were loaded and separated on 15% SDS-PAGE gels, transferred to PVDF membrane and probed with antibodies against total and phosphorylated ERK. Anti-GAPDH was used as a loading control. Results are representative of 2 independent experiments.
HL-60 cells were seeded in T25 flasks at 50 x10^4 cells/mL and treated with either vehicle [0.5% […]
After 16 hours, cells were […]
collected and washed with PBS. Cell pellets were re-suspended in cold cell lysis buffer (radio-immunoprecipitation assay buffer) supplemented with 1% phosphatase inhibitor cocktail 2 and 3 (Sigma) and 10% protease inhibitor (Roche). Cells were lysed for 30 minutes on ice.
Protein concentration was then determined by BCA assay. Lysates were boiled with laemmli sample buffer [Tris-HCL 50 mM (pH 6.7), glycerol 10% (w/v), sodium dodecyl sulphate 2% (w/v), bromophenol blue 0.02% (w/v)] containing DTT […] for 10 min. at 90 °C. Also 20 µg of lysates were resolved by sodium dodecyl sulphate polyacrylamide gel electrophoresis (SDS - PAGE) and transferred onto PVDF transfer membrane (EMD Millipore). Membranes were blocked with 5% non-fat milk and probed with primary antibodies for ERK and phospho-ERK (Cell Signaling). Anti-GAPDH was used as a loading control (Calbiochem).
For orientation: A western blot detects proteins with antibodies after separation by electrophoresis.

“Also recorded” adds a separate entry of the source. Where a name gives a salt, the structure may show the parent alone.

For `N=C(N)Nc1ccc(Oc2cccc(NC(=N)Nc3ccc(F)c(F)c3)c2)cc1` (as salt: hydrochloride) [Compound 6, 1-(3:4-Di-fluorophenyl)-2-(3-(4-guanidinophenoxy)phenyl)guanidine dihydrochloride], the melting point (as a rule, the temperature of the solid-liquid transition) fell in the range of 158 to 160 °C.
The same measure, in the same setting: the same measure for `N=C(N)Nc1ccc(Oc2cc(F)cc(Nc3ccc(Cl)c(C(F)(F)F)c3)c2)cc1` (as salt: hydrochloride) [Compound 36, 1-(4-(3-((4-Chloro-3-(trifluormethyl)phenyl)amino)-5-fluorophenoxy)phenyl)guanidine hydrochloride]: 92 to 94 °C.
Turning to `N=C(N)Nc1ccc(Oc2cccc(N=C(N)Nc3ccc(F)cc3)c2)cc1` [Compound 5, 1-(4-Fluorophenyl)-2-(3-(4-guanidinophenoxy)phenyl)guanidine dihydrochloride], the 50% inhibitory concentration (IC50) (usually the concentration that inhibits the measured activity by half) in the series with HL-60 cells is more than 100 µM.
Regarding `N=C(N)Nc1ccc(Oc2cccc(NC(=N)Nc3ccc(F)c(F)c3)c2)cc1` [Compound 6, 1-(3:4-Di-fluorophenyl)-2-(3-(4-guanidinophenoxy)phenyl)guanidine dihydrochloride], the IC50 in the series with HL-60 cells is more than 100 µM.
The same measure, in the same setting: the result for `N=C(N)Nc1ccc(Oc2cccc(N=C(N)Nc3ccc(I)cc3F)c2)cc1` [Compound 7, 1-(2-Fluoro-4-iodophenyl)-2-(3-(4-guanidinophenoxy)phenyl)guanidine dihydrochloride] reads 8.63 ± 0.51 µM; that for `N=C(N)Nc1ccc(Oc2cccc(N=C(N)Nc3ccc(Br)cc3)c2)cc1` [Compound 8, 1-(4-Bromophenyl)-2-(3-(4-guanidinophenoxy)phenyl)guanidine dihydrochloride], 15.3 ± 1.98 µM.
As to `Cl.Cl.N=C(N)Nc1ccc(Oc2cccc(N=C(N)Nc3ccc(Br)c(C(F)(F)F)c3)c2)cc1` [Compound 9, 1-(4-Bromo-3-(trifluoromethyl)phenyl)-2-(3-(4-guanidinophenoxy)phenyl)guanidine dihydrochloride], the IC50 with HL-60 cells stood at 2.07 ± 0.33 µM. Also, the “effect on ERK phosphorylation (Ras/BRAF pathway)” value in series [1] is “inhibiting ERK phosphorylation; also recorded: abrogates ERK activation”.
Regarding `N=C(N)Nc1cccc(Oc2ccc(N=C(N)Nc3ccc(I)cc3F)cc2)c1` [Compound 10, 1-(2-Fluoro-4-iodophenyl)-2-(4-(3-guanidinophenoxy)phenyl)guanidine dihydrochloride], the IC50 with HL-60 cells was found to be 8.85 ± 0.55 µM.
With `N=C(N)Nc1cccc(Oc2ccc(N=C(N)Nc3ccc(Br)c(C(F)(F)F)c3)cc2)c1` [Compound 11, 1-(4-Bromo-3-(trifluoromethyl)phenyl)-2-(4-(3-guanidinophenoxy)phenyl)guanidine dihydrochloride], in the series on HL-60 cells, the IC50 worked out at 11 ± 0.64 µM.
Turning to `Cl.N=C(N)Nc1ccc(Oc2cccc(Nc3ccc(Cl)cc3)c2)cc1` [Compound 28, 1-(4-(3-((4-Chlorophenyl)amino)phenoxy)phenyl)guanidine hydrochloride], the melting point was 50 to 52 °C. For the same compound, in the series with HL-60 cells, the IC50 was found to be 7.5 ± 0.05 µM.
In turn, `Cl.N=C(N)Nc1ccc(Oc2cccc(Nc3cccc(C(F)(F)F)c3)c2)cc1` [Compound 29, 1-(4-(3-((3-(Trifluoromethyl)phenyl)amino)phenoxy)phenyl)guanidine hydrochloride] gave a melting point of 93 to 95 °C. In the series on HL-60 cells, the IC50 was 4.64 ± 0.83 µM.
The like results for `Cl.N=C(N)Nc1ccc(Oc2cccc(Nc3cccc(S(F)(F)(F)(F)F)c3)c2)cc1` [Compound 30, 1-(4-(3-((3-(Pentafluorosulfanyl)phenyl)amino)phenoxy)phenyl)guanidine hydrochloride] were, in that order, 104 to 106 °C and 3.23 ± 0.36 µM.
`N=C(N)Nc1ccc(Oc2cc(F)cc(Nc3ccc(Cl)c(C(F)(F)F)c3)c2)cc1` [Compound 36, 1-(4-(3-((4-Chloro-3-(trifluormethyl)phenyl)amino)-5-fluorophenoxy)phenyl)guanidine hydrochloride]: in the series with HL-60 cells, the IC50 amounted to 4.07 ± 0.1 µM.
Same read-out and setting: the result for `N=C(N)Nc1ccc(Oc2cccc(NC(=N)Nc3ccc(F)c(F)c3)c2)cn1` [Compound 49, 1-(3,4-Di-fluorophenyl)-3-(3-((6-guanidinopyridin-3-yl)oxy)phenyl)guanidine dihydrochloride] reads 11.6 ± 0.27 µM; that for `N=C(N)Nc1ccc(Oc2cccc(NC(=N)Nc3ccc(I)cc3F)c2)cn1` [Compound 50, 1-(2-Fluoro-4-iodophenyl)-3-(3-((6-guanidinopyridin-3-yl)oxy)phenyl)guanidine dihydrochloride], 8.33 ± 0.32 µM; that for `N=C(N)Nc1ccc(Oc2cccc(NC(=N)Nc3ccc(Br)cc3)c2)cn1` [Compound 51, 1-(4-Bromophenyl)-3-(3-((6-guanidinopyridin-3-yl)oxy)phenyl)guanidine dihydrochloride], 9.37 ± 0.54 µM.
As for `Cl.Cl.N=C(N)Nc1ccc(Oc2cccc(NC(=N)Nc3ccc(Br)c(C(F)(F)F)c3)c2)cn1` [Compound 52, 1-(4-Bromo-3-(trifluoromethyl)phenyl)-3-(3-((6-guanidinopyridin-3-yl)oxy)phenyl) guanidine dihydrochloride], in the series with HL-60 cells, the IC50 was 1.53 ± 0.23 µM. Besides, the “effect on ERK phosphorylation (Ras/BRAF pathway)” value in series [1] was “inhibiting ERK phosphorylation; also recorded: abrogates ERK activation”.
`NS(=O)(=O)Nc1ccc(Oc2cccc(Nc3ccc(Cl)c(C(F)(F)F)c3)c2)cc1` [Compound 75] displayed a melting point of 124 to 126 °C. Moreover, the IC50 with HL-60 cells is 9.14 ± 0.69 µM.

Source of the values: article PMC7767381, “Exploring the Anti-Cancer Mechanism of Novel 3,4′-Substituted Diaryl Guanidinium Derivatives” (Pharmaceuticals, 2020).
